Assay results as given in patent US12435062B2, “Amide compounds and uses thereof” (HUTCHISON MEDIPHARMA LIMITED, priority 2020, dated 2025).

How the values were obtained:
[1] = molecular target: Recombinant human CSF1R kinase (Homo sapiens (Human), UniProt P07333); assay type: biochemical; conditions: Z-LYTE Tyr 1 peptide substrate
[2] = molecular target: CSF1R phosphorylation in THP-1 cells (Homo sapiens (Human), UniProt P07333); assay: Detection of CSF1R phosphorylation activity at cell level (THP-1, M-CSF stimulated, ELISA); assay type: cell-based; conditions: p-CSF1R ELISA, compound 60 min, 300 ng/mL M-CSF 1 min
Experimental: Detection of CSF1R Phosphorylation Activity at Cell Level
THP-1 (ATCC), human acute monocytic leukemia cells. The cells were cultured in an RPMI 1640 medium containing 10% FBS.
(§1) 2. Reagents and instruments
• Human phosphorylation-CSF1R ELISA kit: R&D, #DYC3268-2; • RPMI 1640 culture solution: GIBCO, 910491; • Human M-CSF recombinant cytokine: R&D, 9216-MC-500; • Cell lysis buffer: Cell Signal, 99803S; • 1×PBS buffer (1 L): 8.0 g of NaCl, 0.2 g of KCl, 3.58 g of Na2HPO4-12H2O, 0.24 g of KH2PO4 were dissolved in 1 L of dd H2O, and the pH was adjusted to 7.4; • Blocking solution: PBS buffer containing 1% BSA; • PBST washing liquid: PBS buffer containing 0.05% Tween-20; • Chromogenic substrate: R&D, #DY999; • 2N H2SO4; • Microwell plate reader: Labsystems Multiskan K3: Thermo; Envision: Perkin Elmer; • ELISA plate: Corning, #9018; • Cell culture plate: Facol, #353027. 3. Treatment of cells and preparation of lysis buffer
THP-1 cells were resuspended in RPMI-1640 culture solution containing 2% FBS, and the culture was added to a 96-well plate at a density of 5×10^4/well, 50 μL/well, and cultured in a cell incubator at 5% CO2 and 37° C. overnight; The test compound was diluted with a serum-free RPMI-1640 medium to 3, 1.1, 0.37, 0.12, 0.04, 0.014, 0.005 and 0.002 μM, and the concentration of DMSO was 5%. 5 μL of the diluted compound was added to the 50 μL cell culture system, the culture was cultured in a 5% CO2, 37° C. cell incubator for 60 min, 300 ng/mL of M-CSF was added to the cells, and the mixture was stimulated in the 37° C. cell incubator for 1 min, added 50 μL of cell lysis buffer, and stored in a refrigerator at −80° C.
100 μL/well of the p-CSF1R capture antibody diluted to 0.8 μg/mL with PBS was added to the ELISA plate, and the plate was coated on a shaker at room temperature overnight. The culture was washed with PBST, and then added blocking solution and incubated at room temperature for 2 h. The culture was washed with PBST, added 90 μL of cell lysis buffer, and incubated on a shaker at 25° C. for 2 h. The plate was washed with PBST three times, added 100 μL of anti-p-tyrosine-HRP detection antibody diluted with 0.1% PBS-BSA diluent, and incubated on a shaker at 25° C. for 2 h. The plate was washed with PBST washing liquid, added 100 μL of chromogenic substrate and incubated at room temperature for 10-20 min. The reaction was stopped by adding 50 μL of 2N H2SO4. The optical density signal (450/570 nm) of each well was detected in Labsystems Multiskan K3 or Envision.
wherein • Drug-treated well read-out: indicating the optical density signal of a cell well with the test compound treatment. • Background read-out: indicating the optical density signal of a well without cells but with cell lysis buffer. • Cell well read-out: indicating the optical density signal of a cell well not treated with the compound. 6. Calculation of IC50: obtained by using XL-Fit 5.3 software. 7. Test results

Ba/F3^BCR-FMS-11 cells = assay: Cell proliferation experiment (Ba/F3^BCR-FMS-11, cckit-8); assay type: cell-based, mouse; conditions: Ba/F3^BCR-FMS-11 cell proliferation
Experimental: Cell Proliferation Experiment
Ba/F3^BCR-FMS-11, mouse primary B lymphocytes stably expressing the BCR-FMS fusion gene. The cells were cultured in an RPMI 1640 medium containing 10% FBS.
as §1
• cckit-8 kit: Dojindo, 9 CK04; • Envision: Perkin Elmer; • Cell culture plate: Facol, 9353027. 3. Experimental steps
The BCR-FMS fusion gene was transfected into Ba/F3 cells, and the cell line Ba/F3^BCR-FMS-11 that stably expresses BCR-FMS and grows depending on CSF-1R was screened. Ba/F3^BCR-FMS-11 cell proliferation experiments is completed by using the Cell Counting kit cckit-8 in a 96-well plate. In a 96-well plate, 5000/well of Ba/F3^BCR-FMS-11 cells were inoculated at 100 μL/well. […] 10 μL of the compound dilutions with the above 8 concentrations were added to the culture cell wells. The culture was incubated in a 37° C. and 5% CO2 cell incubator for 72 hours. 10 μL of Cell Counting kit cckit-8 detection reagent was added to each well, and incubated at 37° C. and 5% CO2 in a cell incubator for another 1 h. The optical density absorption value at 450 nm of each well was detected by using Perkin Elmer Envision instrument.
wherein • Drug-treated well read-out: indicating the optical density signal of a cell well with the test compound treatment. • Cell well read-out: indicating the optical density signal of a cell well not treated with the test compound (only 0.5% DMSO). • Background read-out: indicating the optical density signal of a well with the cell medium. 5. Calculation of IC50: obtained by using XL-Fit 5.3 software. 6. Test results

Chain of Recombinant human CSF1R kinase (P07333 20-972): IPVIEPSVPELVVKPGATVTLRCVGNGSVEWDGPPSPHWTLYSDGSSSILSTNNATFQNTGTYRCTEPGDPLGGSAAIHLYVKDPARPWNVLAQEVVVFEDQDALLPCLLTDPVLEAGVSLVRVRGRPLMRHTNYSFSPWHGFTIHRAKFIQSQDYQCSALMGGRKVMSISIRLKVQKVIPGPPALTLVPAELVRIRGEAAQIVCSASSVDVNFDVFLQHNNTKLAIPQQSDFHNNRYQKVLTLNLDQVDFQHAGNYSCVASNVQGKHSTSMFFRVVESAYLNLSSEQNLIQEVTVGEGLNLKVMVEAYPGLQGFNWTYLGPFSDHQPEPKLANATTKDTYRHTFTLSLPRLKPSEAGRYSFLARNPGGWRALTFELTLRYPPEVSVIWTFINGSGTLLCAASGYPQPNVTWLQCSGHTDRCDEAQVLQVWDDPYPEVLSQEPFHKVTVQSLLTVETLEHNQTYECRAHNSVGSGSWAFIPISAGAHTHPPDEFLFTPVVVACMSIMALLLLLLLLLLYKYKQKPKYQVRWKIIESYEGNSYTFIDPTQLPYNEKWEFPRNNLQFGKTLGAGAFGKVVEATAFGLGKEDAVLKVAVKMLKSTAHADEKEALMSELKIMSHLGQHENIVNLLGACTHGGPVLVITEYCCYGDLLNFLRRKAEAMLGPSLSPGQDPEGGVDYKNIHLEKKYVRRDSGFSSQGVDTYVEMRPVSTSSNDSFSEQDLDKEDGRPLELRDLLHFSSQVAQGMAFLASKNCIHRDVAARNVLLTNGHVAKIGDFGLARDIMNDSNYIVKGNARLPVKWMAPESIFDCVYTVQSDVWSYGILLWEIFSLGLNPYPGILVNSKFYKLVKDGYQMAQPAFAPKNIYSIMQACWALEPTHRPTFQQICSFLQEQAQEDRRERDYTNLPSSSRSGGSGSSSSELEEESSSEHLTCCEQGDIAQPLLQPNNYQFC
Chain of CSF1R phosphorylation in THP-1 cells (P07333 20-972): as above

| SMILES | IC50 [1] [nM] | IC50 [2] [nM] | IC50 (Ba/F3^BCR-FMS-11 cells; Mus musculus, 72 h) [nM] | IC50 (Ba/F3^BCR-FMS-11 cells; 72 hours) [nM] |
| --- | --- | --- | --- | --- |
| COc1ccc(C(=O)Nc2ccc(Oc3ccnc(-c4cnn(C)c4)c3)cn2)c(=O)n1C [Compound 3, 6-methoxy-1-methyl-N-(5-((2-(1-methyl-1H-pyrazol-4-yl)pyridin-4-yl)oxy)pyridin-2-yl)-2-oxo-1,2-dihydropyridine-3-carboxamide] | 5 | 63 | 12 | – |
| Cn1cc(Nc2cc(Oc3cnc(NC(=O)c4cccn(C)c4=O)c(F)c3)ccn2)cn1 [Compound 4, N-(3-fluoro-5-((2-((1-methyl-1H-pyrazol-4-yl)amino)pyridin-4-yl)oxy)pyridin-2-yl)-1-methyl-2-oxo-1,2-dihydropyridine-3-carboxamide] | 66 | 28 | 60 | – |
| Cc1ncc(C(=O)Nc2ccc(Oc3cc(-c4cnn(C)c4)ncn3)cn2)c(=O)n1C [Compound 5, 1,2-dimethyl-N-(5-((6-(1-methyl-1H-pyrazol-4-yl)pyrimidin-4-yl)oxy)pyridin-2-yl)-6-oxo-1,6-dihydropyrimidine-5-carboxamide] | 22 | 11 | 47 | – |
| CC(C)n1cccc(C(=O)Nc2ccc(Oc3ccnc(-c4cnn(C)c4)n3)cn2)c1=O [Compound 6, 1-isopropyl-N-(5-((2-(1-methyl-1H-pyrazol-4-yl)pyrimidin-4-yl)oxy)pyridin-2-yl)-2-oxo-1,2-dihydropyridine-3-carboxamide] | 7 | 21 | 15 | – |
| Cc1ncc(C(=O)Nc2ccc(Oc3ccnc(-c4cnn(C)c4)n3)cn2)c(=O)n1C [Compound 7, 1,2-dimethyl-N-(5-((2-(1-methyl-1H-pyrazol-4-yl)pyrimidin-4-yl)oxy)pyridin-2-yl)-6-oxo-1,6-dihydropyrimidine-5-carboxamide] | 67 | 25 | 39 | – |
| Cc1ncc(C(=O)Nc2ccc(Oc3ccnc(-c4cnn(C)c4)c3)cn2)c(=O)n1C [Compound 8, 1,2-dimethyl-N-(5-((2-(1-methyl-1H-pyrazol-4-yl)pyridin-4-yl)oxy)pyridin-2-yl)-6-oxo-1,6-dihydropyrimidine-5-carboxamide] | 4 | 4 | 7 | – |
| Cn1cc(-c2cc(Oc3ccc(NC(=O)c4ccc[nH]c4=O)nc3)ccn2)cn1 [Compound 9, N-(5-((2-(1-methyl-1H-pyrazol-4-yl)pyridin-4-yl)oxy)pyridin-2-yl)-2-oxo-1,2-dihydropyridine-3-carboxamide] | 12 | 105 | 107 | – |
| Cn1cc(-c2cc(Oc3ccc(NC(=O)c4cncn(C)c4=O)nc3)ccn2)cn1 [Compound 10] | 15 | 62 | 88 | – |
| Cn1cc(-c2cc(Oc3ccc(NC(=O)c4cnc5n(c4=O)CCC5)nc3)ccn2)cn1 [Compound 11] | 5 | 6 | 6 | – |
| Cc1c(F)cc(C(=O)Nc2ccc(Oc3ccnc(-c4cnn(C)c4)c3)cn2)c(=O)n1C [Compound 12] | 9 | 143 | 66 | – |
| Cc1ncn(C)c(=O)c1C(=O)Nc1ccc(Oc2ccnc(-c3cnn(C)c3)c2)cn1 [Compound 13] | 91 | 42 | 231 | – |
| CC(C)n1cccc(C(=O)Nc2ccc(Oc3ccnc(-c4ncn(C)n4)c3)cn2)c1=O [Compound 15] | 34 | 215 | – | 493 |
| Cc1cnc(Nc2cc(Oc3ccc(NC(=O)c4cnc(C)n(C)c4=O)nc3)ccn2)s1 [Compound 16] | 88 | 20 | 45 | – |
| COc1cc(Oc2ccnc(-c3cnn(C)c3)c2)ccc1NC(=O)c1cccn(C(C)C)c1=O [Compound 18] | 13 | 60 | 57 | – |
| CC(C)n1cccc(C(=O)Nc2ccc(Oc3ccnc(-c4cnn(C)c4)c3)cc2F)c1=O [Compound 20] | 8 | 109 | 44 | – |
| Cn1cnc(-c2cc(Oc3cnc(NC(=O)c4cccn(C)c4=O)c(F)c3)ccn2)c1 [Compound 21] | 28 | 43 | 73 | – |
| Cn1cc(-c2cc(Oc3cnc(NC(=O)c4cccn(C)c4=O)c(F)c3)ccn2)cn1 [Compound 22] | 11 | 10 | 14 | – |
| Cc1ncc(C(=O)Nc2ncc(Oc3ccnc(-c4cnn(C)c4)c3)cc2F)c(=O)n1C [Compound 23] | 22 | 38 | 45 | – |
| Cc1cc(Oc2ccnc(-c3cnn(C)c3)c2)cnc1NC(=O)c1cccn(C(C)C)c1=O [Compound 24] | 30 | 59 | 37 | – |
| CC(C)n1cccc(C(=O)Nc2ncc(Oc3ccnc(-c4cnn(C)c4)c3)cc2C#N)c1=O [Compound 25] | 16 | 38 | 66 | – |
| Cn1cc(-c2cc(Oc3ccc(NC(=O)c4ccc5n(c4=O)CCC5)nc3)ccn2)cn1 [Compound 27] | 8 | 18 | 8 | – |
| Cc1ncc(C(=O)Nc2ccc(Oc3ccnc(-c4cn(C)cn4)c3)cn2)c(=O)n1C [Compound 30] | 35 | 14 | 24 | – |
| Cc1cn(-c2cc(Oc3ccc(NC(=O)c4cnc(C)n(C)c4=O)nc3)ccn2)cn1 [Compound 32] | 59 | 15 | 99 | – |
| Cc1ncc(C(=O)Nc2ccc(Oc3ccnc(-c4cccnc4)c3)cn2)c(=O)n1C [Compound 33] | 62 | 15 | 58 | – |
| Cc1ncc(C(=O)Nc2ccc(Oc3ccnc(-c4ccccn4)c3)cn2)c(=O)n1C [Compound 34] | 79 | 24 | 125 | – |
| Cc1cccc(Nc2cc(Oc3ccc(NC(=O)c4cnc(C)n(C)c4=O)nc3)ccn2)n1 [Compound 36] | 28 | 8 | – | 23 |
| Cn1cc(-c2cc(Oc3ccc(NC(=O)c4cnc(O)n(C)c4=O)nc3)ccn2)cn1 [Compound 134, 2-hydroxy-1-methyl-N-(5-((2-(1-methyl-1H-pyrazol-4-yl)pyridin-4-yl)oxy)pyridin-2-yl)-6-oxo-1,6-dihydropyrimidine-5-carboxamide] | – | – | 526 | – |
| Cc1ncc(C(=O)Nc2ccc(Oc3ccnc(-c4cn(C)nc4O)c3)cn2)c(=O)n1C [Compound 135, N-(5-((2-(3-hydroxy-1-methyl-1H-pyrazol-4-yl)pyridin-4-yl)oxy)pyridin-2-yl)-1,2-dimethyl-6-oxo-1,6-dihydropyrimidine-5-carboxamide] | 12 | – | 7 | – |
